# Source: paper PMC6368403, “Identification of a bilirubin receptor that may mediate a component of cholestatic itch” (eLife, 2019)
# Where “and” joins values, the source holds several entries; their conditions need not be identical. Identical values can stand only once. Numbered stars: 1 amine (or outer) side, 2 acyl side, 3 side chain; on linkers, the order of the positions; unused ones are H or OH. Bridge positions count the residues as written; N and C are the ends. Square brackets hold non-standard residues; d marks the D form. Peptide text beside a SMILES is read from it. X1 = CC(=O)NC(C(=O)OC(C(C)C)C(N[*:1])C(=O)[*:2])C(O)C(C)C; PhLac = O=C(O)[CH](O)Cc1ccccc1; NMeT = CN[CH](C(=O)O)[CH](C)O; NMeA = CN[CH](C)C(=O)O; NMeDha = C=C(NC)C(=O)O
# Columns and labels:
# mice = assay: Scratching bouts after subcutaneous injection into the nape of the neck / back; format: in vivo, mouse; details: for Scratching bouts binned according to 5 min intervals (time course of itch behavior): one column per mouse, values of a mouse sum to 1 (Fig 1B)
# Experimental: All applicable behavioral tests were performed and analysed with the experimenter blind to genotype. […] On the day before the experiment, animals were placed in the test chamber for 30 min before being subjected to a series of three mock injections with 5 min break periods in between. On the day of the experiment, animals were first allowed to acclimatize to the test chamber for 10 min before injection. […] A bout of scratching was defined as a continuous scratching movement with either hindpaw directed at the area of the injection site. In the cheek injection model, a wipe was defined as a single forepaw stroking the site of the injection. Use of both forepaws on the face or cheek was considered as grooming behavior. […] For H1R block, 30 mg/kg of cetirizine HCl (pH 7.4) was given intraperitoneally thirty minutes prior to injection of bilirubin. Licking behavior was quantified in seconds and identified as the licking of the toes or footpad of the hind paw site of injection that was neither preceded nor followed by licking of any other portion of the body.
# MRGPRX4 = target: T1, MRGPRX4 (Homo sapiens, UniProt Q96LA9); assay: Ca2+ imaging and concentration-Ca2+ response (EC50) in HEK293 cells expressing MRGPRX4; format: cell-based; details: for Ca2+ response (concentration-response curve): MRGPRX4, triplicate wells (Fig 2I); for Effect on bilirubin-induced calcium responses: MRGPRX4 cells pre-incubated with 10 µM inhibitor for 30 min, 50 µM bilirubin
# T1 construct: expressed in transfected cells
# T1 sequence (Q96LA9 whole entry): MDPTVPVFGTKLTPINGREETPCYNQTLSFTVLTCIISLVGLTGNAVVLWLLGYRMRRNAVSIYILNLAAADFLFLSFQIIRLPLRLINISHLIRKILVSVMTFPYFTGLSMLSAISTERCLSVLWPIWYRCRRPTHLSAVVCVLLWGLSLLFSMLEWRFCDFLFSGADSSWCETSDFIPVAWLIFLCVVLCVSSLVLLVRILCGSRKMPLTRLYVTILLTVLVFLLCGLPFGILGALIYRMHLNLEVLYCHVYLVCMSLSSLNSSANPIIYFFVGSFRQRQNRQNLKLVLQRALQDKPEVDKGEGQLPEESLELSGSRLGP
# Experimental: (§1) All cultured cells were maintained in DMEM supplemented with 10% FBS and 1% Penicillin/Streptomycin at 37°C, 5% CO2. All data included were generated from cells tested for mycoplasma and found to be negative. Cells were imaged in calcium imaging buffer (CIB; 10 mM HEPES, 1.2 mM NaHCO3, 130 mM NaCl, 3 mM KCl, 2.5 mM CaCl2, 0.6 mM MgCl2, 20 mM glucose, and 20 mM sucrose at pH 7.4 and 290–300 mOsm). To monitor changes in intracellular [Ca^2+] ([Ca^2+]i), cells were loaded with either Fura 2-AM (HEK293 cells) or Fluo 4-AM (DRG neurons and mast cells) for 30 min in the dark at 37°C in CIB just prior to imaging. With Fura 2-AM, emission at 510 nm was monitored from excitation at both 340 nm and 380 nm. With Fluo 4-AM, emission at 520 nm was monitored from excitation at 488 nm. Cells were identified as responding if the intracellular [Ca^2+] rose by either 50% compared to baseline or 50% compared to the [Ca^2+]i change assayed during addition of 50 mM KCl (neurons only). Damaged, detached, high-baseline, and motion-activated cells were excluded from analysis.
# (§2) In initial screens, HEK293 cells stably expressing the murine G-protein alpha-subunit Gα15, a unique Gα protein that non-selectively couples a large variety of GPCRs to phospholipase C ^30, were plated on poly-D-lysine-coated coverslips and transiently transfected with constructs encoding the MRGRPR of interest. 12–24 hr later, cells were loaded with the Fura 2-AM. Unless otherwise specified, compounds were perfused into the imaging chamber for approximately thirty seconds after a baseline period was established. Response was then monitored at 5 s intervals for an additional 60 s.
# (§3) HEK293 cells stably expressing either MRGPRA1, MRGPRX4, and MRGRPC11 were seeded in poly-D-lysine-coated 96-well plates at 10,000 cells/well. Cells were loaded with Fura 2–AM, washed twice, and maintained in CIB. Haem metabolites were freshly dissolved in DMSO in dim light and then diluted into a buffer comprised of 20 mM Tris and 150 mM NaCl at pH 8.8. Potential changes in pH were evaluated prior to each experiment. EC50 values were determined from dose-responses performed in triplicate, repeated 2–4 times. To determine potential antagonism by QWF against bilirubin, cells were treated with varying doses of QWF for 1 min in CIB prior to application of agonist.
# (§4) HEK293 stable cell lines expressing GFP-tagged MRGPRA3, MRGPRC11, MRGPRD, MRGPRX1, and MRGPRX2 were generated in previously described reports ([Liu et al., 2009]; [Liu et al., 2012]; [McNeil et al., 2015]). Briefly, plasmids containing the receptor of interest were transfected into HEK cells using Lipofectamine 3000. After 3 days, cells were then selected using 0.5 mg/mL G418. After 3 weeks, monoclonal colonies were established and each the highest expressing clones were identified. For this study, Mrgpra1 and MRGPRX4 were inserted into pEGFP-N1 and transfected into HEK293 cells. MRGPR-positive cells were selected using 0.5 mg/mL G418 for three weeks, after which GFP-positive cells were sorted by FACS and monoclonally expanded. Two lines expressing similar levels of MRGPRA1 and MRGPRX4, as measured by GFP fluorescence, were selected for study.
# MRGPRA1 = target: T2, MRGPRA1 (Mus musculus, UniProt Q91WW5); assay: Ca2+ imaging and concentration-Ca2+ response (EC50) in HEK293 cells expressing MRGPRA1; format: cell-based; details: for Ca2+ response (concentration-response curve): MRGPRA1, triplicate wells (Fig 2D); for Effect on bilirubin-induced calcium responses: MRGPRA1 cells pre-incubated with 10 µM inhibitor for 30 min, 50 µM bilirubin
# T2 construct: expressed in transfected cells
# T2 sequence (Q91WW5 1-304): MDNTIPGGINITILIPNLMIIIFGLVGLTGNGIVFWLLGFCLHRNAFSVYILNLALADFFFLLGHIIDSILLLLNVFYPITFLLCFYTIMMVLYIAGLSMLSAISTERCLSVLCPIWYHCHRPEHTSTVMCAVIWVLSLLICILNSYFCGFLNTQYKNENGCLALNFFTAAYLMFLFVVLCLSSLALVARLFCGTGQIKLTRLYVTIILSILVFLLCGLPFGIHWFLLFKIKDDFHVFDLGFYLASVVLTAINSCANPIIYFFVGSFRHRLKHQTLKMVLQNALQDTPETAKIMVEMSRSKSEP
# Experimental: as §1, §2, §3, §4
structure (smiles),measurement,setting,value
"CCN(CC)CCCC(C)Nc1ccnc2cc(Cl)ccc12 (stereo not shown) [Chloroquine, chloroquine]",Scratching bouts binned according to 5 min intervals (time course of itch behavior),mice; time 5 min,0.201 and 0.03846 and 0.1149 and 0.1078 and 0.05405 and 0 (2×) and 0.1374 and 0.04255 and 0.2424 and 0.1529
same,Scratching bouts binned according to 5 min intervals (time course of itch behavior),mice; time 10 min,0.2353 and 0.1065 and 0.2213 and 0.1121 and 0.1459 and 0.2993 and 0.3626 and 0.4113 and 0.6263 and 0.2639 and 0.4204
same,Scratching bouts binned according to 5 min intervals (time course of itch behavior),mice; time 15 min,0.348 and 0.3787 and 0.1447 and 0.2155 and 0.3676 and 0.3673 and 0.4011 and 0.3191 and 0 and 0.5 and 0.2548
same,Scratching bouts binned according to 5 min intervals (time course of itch behavior),mice; time 20 min,0.1618 and 0.2426 and 0.2681 and 0.2284 and 0.1838 and 0.1837 and 0.0989 and 0.09929 and 0.1212 and 0 (2×)
same,Scratching bouts binned according to 5 min intervals (time course of itch behavior),mice; time 25 min,0.05392 and 0.142 and 0.1447 and 0.1336 and 0.09189 and 0.1361 and 0 (3×) and 0.2361 and 0.172
same,Scratching bouts binned according to 5 min intervals (time course of itch behavior),mice; time 30 min,0 (4×) and 0.09172 and 0.1064 and 0.2026 and 0.1568 and 0.01361 and 0.1277 and 0.0101
"NCCc1c[nH]cn1 [Histamine, histamine]",Scratching bouts binned according to 5 min intervals (time course of itch behavior),mice; time 5 min,0.02985 and 0.0102 and 0 (10×) and 0.134
same,Scratching bouts binned according to 5 min intervals (time course of itch behavior),mice; time 10 min,0.3881 and 0.5714 and 0.08333 and 0.1818 and 0.3333 and 0.527 and 0.02857 and 0.1765 and 0.2143 and 0.1923 and 0.3918 and 0.5938 and 0.4348
same,Scratching bouts binned according to 5 min intervals (time course of itch behavior),mice; time 15 min,0.2985 and 0.07143 and 0.8333 and 0.6545 and 0.625 and 0.3919 and 0.4286 and 0.2353 and 0.3367 and 0.3846 and 0.1031 and 0 and 0.5435
same,Scratching bouts binned according to 5 min intervals (time course of itch behavior),mice; time 20 min,0.2687 and 0.1633 and 0 (2×) and 0.1636 and 0.04167 and 0.08108 and 0.2286 and 0.4118 and 0.08163 and 0.1154 and 0.2344 and 0.02174
same,Scratching bouts binned according to 5 min intervals (time course of itch behavior),mice; time 25 min,0.01493 and 0.1837 and 0.08333 and 0 (4×) and 0.3143 and 0.1765 and 0.1939 and 0.3077 and 0.2474 and 0.1719
same,Scratching bouts binned according to 5 min intervals (time course of itch behavior),mice; time 30 min,0 (11×) and 0.1735 and 0.1237
C=CC1=C(C)/C(=C/C2=NC(=C\c3[nH]c(/C=C4\NC(=O)C(C)=C4C=C)c(C)c3CCC(=O)O)/C(CCC(=O)O)=C2C)NC1=O [biliverdin],Ca2+ response (concentration-response curve),MRGPRX4; [Ligand] 7.8125e-6 M,0
same,Ca2+ response (concentration-response curve),MRGPRX4; [Ligand] 1.5625e-5 M,0
same,Ca2+ response (concentration-response curve),MRGPRX4; [Ligand] 3.125e-5 M,0
same,Ca2+ response (concentration-response curve),MRGPRX4; [Ligand] 6.25e-5 M,0
same,Ca2+ response (concentration-response curve),MRGPRX4; [Ligand] 0.000125 M,0
same,Ca2+ response (concentration-response curve),MRGPRX4; [Ligand] 0.00025 M,0
same,Ca2+ response (concentration-response curve),MRGPRX4; [Ligand] 0.0005 M,0
same,Ca2+ response (concentration-response curve),MRGPRX4; [Ligand] 0.001 M,0
same,Scratching behavior,mice; metabolite injected into mice (Fig 1D),did not induce scratching
same,Ca2+ response (concentration-response curve),MRGPRA1; [Ligand] 7.8125e-6 M,0
same,Ca2+ response (concentration-response curve),MRGPRA1; [Ligand] 1.5625e-5 M,0
same,Ca2+ response (concentration-response curve),MRGPRA1; [Ligand] 3.125e-5 M,0
same,Ca2+ response (concentration-response curve),MRGPRA1; [Ligand] 6.25e-5 M,0
same,Ca2+ response (concentration-response curve),MRGPRA1; [Ligand] 0.000125 M,0
same,Ca2+ response (concentration-response curve),MRGPRA1; [Ligand] 0.00025 M,0
same,Ca2+ response (concentration-response curve),MRGPRA1; [Ligand] 0.0005 M,0
same,Ca2+ response (concentration-response curve),MRGPRA1; [Ligand] 0.001 M,0
O=C(O)COCCN1CCN(C(c2ccccc2)c2ccc(Cl)cc2)CC1 (stereo not shown) [cetirizine],Effect on scratching of mice injected with bilirubin,mice; 30 mg/kg i.p. 30 min prior to bilirubin at the nape,failed to alleviate scratching behavior
"C=C1C(=O)NC(C)C(=O)N(C)C(C)C(=O)NC(C(OC(=O)C(NC(C)=O)C(O)C(C)C)C(C)C)C(=O)N(C)C(C(C)OC)C(=O)OC(C)C(NC(C)=O)C(=O)OC(Cc2ccccc2)C(=O)N1C (stereo not shown) [YM-254890, reference compound] (Ac-T[PhLac][NMeDha]A[NMeA][X1][NMeT](Me); ester 1-C; configuration not given here)",Effect on bilirubin-induced calcium responses,MRGPRX4,inhibited bilirubin-induced calcium responses
same,Effect on bilirubin-induced calcium responses,MRGPRA1,abolished bilirubin-induced calcium responses
"COc1ccc2c(c1)CC[C@@H]1[C@@H]2CC[C@]2(C)[C@@H](NCCCCCCN3C(=O)C=CC3=O)CC[C@@H]12 [U73122, reference compound]",Effect on bilirubin-induced calcium responses,MRGPRX4,inhibited bilirubin-induced calcium responses
same,Effect on bilirubin-induced calcium responses,MRGPRA1,abolished bilirubin-induced calcium responses
